Tests used:
FKBP12 = FKBP12 (Homo sapiens, UniProt P62942); test: FKBP12 PPIase assay (inhibition of peptidyl-prolyl isomerase activity); type: biochemical; conditions: 6 concentrations in duplicate, data fitted to a Ki curve
[1] = Murine PLP T cell proliferation assay (PLP assay); type: cell-based; conditions: Mus musculus, off-target (mTOR-driven) immunosuppressive potency

Sequence of FKBP12 (P62942 whole entry, species assumed): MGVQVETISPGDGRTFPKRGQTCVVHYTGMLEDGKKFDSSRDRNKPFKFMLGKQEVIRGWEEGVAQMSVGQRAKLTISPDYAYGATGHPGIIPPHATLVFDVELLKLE

Row | Ki (FKBP12) [nM] | SMILES | IC50 [1] [nM]
1 | 95 | CO[C@H]1C[C@@H]2CC[C@@H](C)[C@@](O)(O2)C(=O)C(=O)N2CCCC[C@H]2C(=O)O[C@H](/C(C)=C/C[C@H](O)[C@H](C)C[C@H]2CC[C@H](O)CC2)CC(=O)[C@H](C)C[C@H](C)/C=C/C=C/C=C/1C [Compound 21] | 
2 |  | CO[C@H]1C[C@@H]2CC[C@@H](C)[C@@](O)(O2)C(=O)C(=O)N2CCCC[C@H]2C(=O)OC([C@H](C)C[C@H]2CC[C@H](O)CC2)C[C@@H](O)CC(=O)[C@H](C)CC[C@H](C)/C=C/C=C/C=C/1C (stereo partly drawn) [Compound 4] | 4460
3 | 180 | CO[C@H]1C[C@@H]2CC[C@@H](C)[C@](O)(CC(=O)N3CCCC[C@H]3C(=O)OC([C@H](C)C[C@@H]3CC[C@@H](O)[C@H](O)C3)C/C=C(\C)[C@@H](O)CC(=O)[C@H](C)CC[C@H](C)/C=C/C=C/C=C/1C)O2 (stereo partly drawn) [Compound 9] | 

Source: patent US9976165B2, “Methods for increasing molecular diversity of polyketides and non-ribosomal proteins” (Isomerase Therapeutics Limited, priority 2013, dated 2018)
